Experimental data reported in patent publication US20200085778A1, “Agent for Promoting Decomposition and Clearance of Amyloid-Beta” (Kao Corporation, priority 2017, published 2020).

Target: T1, aggregated amyloid-β (amyloid-β peptide, Human, 1-42) (Homo sapiens, UniProt P05067)
T1 construct: An amyloid-β peptide (Human, 1-42, Peptide Institute, Inc.); purchased Peptide Institute, Inc
Assay: thioflavin T (ThT) fluorescence assay of degrading aggregated amyloid
Format: biochemical
Conditions: final concentration 1, 10, or 100 μM, 37° C. for 7 days, vs 0.5% DMSO control; FIG. 1
Description: The direct activity of degrading aggregated amyloid by chlorogenic acid (5-CQA) was examined using a thioflavin T (ThT) fluorescence assay. An amyloid-β peptide (Human, 1-42, Peptide Institute, Inc.) was dissolved in dimethyl sulfoxide (DMSO) to 2.5 mM and was further adjusted to 250 μM with sterile water, followed by incubation at 37° C. for 7 days to promote the aggregation reaction. After the reaction, chlorogenic acid (5-CQA, Cayman Chemical Company) was added to the aggregated amyloid-β (10 mass %) at a final concentration of 1, 10, or 100 μM, followed by further incubation at 37° C. for 7 days. As a control, 0.5% DMSO, which was used as the solvent of the chlorogenic acid, was added. After the reaction, ThT (Sigma-Aldrich, final concentration: 5 μM) dissolved in 50 mM glycine buffer (pH 8.5) was added to the reaction solution in a 96-well plate (ThermoFisher Scientific), followed by a reaction at room temperature for 15 minutes while gently stirring under light shielding. After the reaction, fluorescence was detected at 450 nm (excitation) and 480 nm (emission) using a fluorescence plate reader (Ensight 3400, PerkinElmer Co., Ltd.) to measure the degree of aggregation of amyloid-β.

T1 sequence (P05067 672-713): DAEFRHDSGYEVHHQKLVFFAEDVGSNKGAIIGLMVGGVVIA

## O=C(/C=C/c1ccc(O)c(O)c1)O[C@@H]1C[C@](O)(C(=O)O)C[C@@H](O)[C@H]1O [chlorogenic acid, 5-caffeoylquinic acid]
  activity of degrading aggregated amyloid (degree of aggregation of amyloid-β, ThT fluorescence): has an activity of degrading aggregated amyloid in a dose-dependent manner
